# Results taken from patent publication US11661404B2, “Prodrug compounds activated by AKR1C3 and their use for treating hyperproliferative disorders” (priority 2018, dated 2023).
# Molecular target: T1, recombinant human AKR1C3 (Homo sapiens, UniProt P42330)
# T1 construct: His6 (hexahistidine) (C); made in house; host or cells: E. coli BL21(DE3)
# T1 sequence (P42330 1-323): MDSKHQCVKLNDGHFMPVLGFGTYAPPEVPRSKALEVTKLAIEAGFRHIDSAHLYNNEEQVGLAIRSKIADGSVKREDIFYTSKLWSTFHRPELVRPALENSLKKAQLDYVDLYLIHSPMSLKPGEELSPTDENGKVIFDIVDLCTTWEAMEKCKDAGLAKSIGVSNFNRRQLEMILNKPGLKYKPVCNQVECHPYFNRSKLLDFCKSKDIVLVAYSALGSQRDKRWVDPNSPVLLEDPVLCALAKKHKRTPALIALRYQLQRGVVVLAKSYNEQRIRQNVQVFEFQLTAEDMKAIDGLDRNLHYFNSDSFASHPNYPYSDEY
# Assay: Kinetics assay: metabolism of prodrugs by recombinant human AKR1C3
# Format: biochemical
# Settings: NADPH, pH 7.4, 37° C.
# Protocol: E. coli BL21(DE3) cells expressing the pET22b-AKR1C3 construct with a C-terminal hexahistidine (His6) tag and constitutive promoter was generated. Colonies of these transformed E. coli cells were grown in LB agar medium containing 100 μg/mL of ampicillin. A single colony was picked the following day and grown in 400 mL batches of bacterial medium containing ampicillin (100 μg/mL) at 37° C., with continuous shaking at 200 rpm overnight. Bacterial cultures were pelleted by centrifugation (4000×g, 15 minutes) and resuspended in lysis buffer (10 mL/400 mL culture). The cells were disrupted by sonication (Sonicator 3000, Misonix) and centrifuged at 14,000 rpm for 30 minutes (at 4° C.). The cleared lysate was filtered in successive filters containing pore sizes of 1.20 μm, 0.8 μm and 0.2 μm and loaded onto a nickel-agarose affinity chromatography column on an ÄKTA Purifier system. The column was washed with 20 mL of the lysis buffer and the His6-tagged AKR1C3 protein was eluted with lysis buffer supplemented with 500 mM imidazole. The protein was further purified by a liquid chromatography gel filtration column (Superdex 200 HR16/60) using lysis buffer (supplemented with 5% v/v glycerol) and 1 mM DTT (pH 7.0) at a flow rate of 0.3 mL/min. Protein was monitored by absorbance at 280 nm, and purity of the fractions (1 mL) was assessed by SDS-PAGE. Active fractions containing the purified protein were pooled and concentrated by centrifugation (3,000×g, 4° C.) on a Vivaspin concentrator (MWCO 10,000 cutoff; GE Healthcare). The protein containing solution was supplemented with glycerol (to a final concentration of 15%, v/v) and NADP^+ was added to a final concentration of 2 mM.
# Kinetic parameters of compounds of the invention were determined in a 96-well plate format. The 100 mM potassium phosphate buffer used in this assay was made with the following reagents to a pH of 7.4: • 0.5 M K2HPO4— 8.2 mL • 0.5 M KH2PO4— 1.8 mL • BSApowder—25 mg • Milli Q water—40 mL
# For the assay, 2 μL of varying substrate concentrations were incubated with 94 μL of the potassium phosphate buffer and 2 μL of 5 mM NADPH for 5 minutes in the pre-warmed (37° C.) plate chamber of a Molecular Devices SpectraMax M2 plate reader. Purified AKR1C3 enzyme (2 μL) was added to a final concentration of […] in each well using an Eppendorf electronic multi-channel pipette. Absorbance measurements were recorded immediately upon addition of enzyme over a period of 5 minutes at a wavelength of 400 nm. Absorbance changes for each compound concentration were plotted against time to obtain the rate of absorbance change over the 5 minute period. The rate of absorbance change was then plotted against the compound concentration and non-linear regression analysis and Michaelis-Menten curve fitting performed on GraphPadPrism (version 5.00 for Windows, GraphPad Software, San Diego Calif. USA) in order to determine kinetic parameters of compounds.
Structure (SMILES),Km [µM],kcat [s⁻¹]
"O=[N+]([O-])c1ccc(N(CCBr)CCBr)c(S(=O)(=O)N2CCN(CC(O)CO)CC2)c1 (stereo not shown) [Compound 566, 3-(4-((2-(bis(2-bromoethyl)amino)-5-nitrophenyl)sulfonyl)piperazin-1-yl)propane-1,2-diol]",32.2,67.1
"CN1CCN(S(=O)(=O)c2cc([N+](=O)[O-])ccc2N(CCBr)CCOS(C)(=O)=O)CC1 [Compound 602, 2-((2-bromoethyl)(2-((4-methylpiperazin-1-yl)sulfonyl)-4-nitrophenyl)amino)ethyl methanesulfonate]",33.1,–
"CS(=O)(=O)OCCN(CCBr)c1ccc([N+](=O)[O-])cc1S(=O)(=O)N1CCN(CC(O)CO)CC1 (stereo not shown) [Compound 605, 2-((2-bromoethyl)(2-((4-(2,3-dihydroxypropyl)piperazin-1-yl)sulfonyl)-4-nitrophenyl)amino)ethyl methanesulfonate]",17.1,–
"CN1CCN(S(=O)(=O)c2cc([N+](=O)[O-])ccc2N(CCOS(C)(=O)=O)CCOS(C)(=O)=O)CC1 [Compound 641, ((2-((4-methylpiperazin-1-yl)sulfonyl)-4-nitrophenyl)azanediyl)bis(ethane-2,1-diyl) dimethanesulfonate]",21.5,–
"CS(=O)(=O)OCCN(CCBr)c1c(C(=O)NCCO)cc([N+](=O)[O-])cc1[N+](=O)[O-] [PR-104A, 2-((2-bromoethyl)(2-((2-hydroxyethyl)-carbamoyl)-4,6-dinitrophenyl)amino)ethyl methanesulfonate, reference compound]",72.9,18.7
"CN1CCN(C(=O)c2cc([N+](=O)[O-])ccc2N(CCBr)CCBr)CC1 [SN34118, reference compound]",9,18.7
"CN1CCN(C(=O)c2cc([N+](=O)[O-])ccc2N(CCBr)CCOS(C)(=O)=O)CC1 [SN34454, reference compound]",–,5.2
